Test results reported in BindingDB's records for doi:10.1016/j.bmcl.2016.12.066 (China Pharmaceutical University, 2017).

What follows are compounds tested against T1, Tissue factor (Homo sapiens, UniProt P13726) (assay: ChEBML_1654816).
Description: (§1) Inhibition of LPS-induced tissue factor procoagulant activity in human THP1 cells preincubated for 1 hr followed by LPS addition measured after 5 hrs using factor 10a chromogenic substrate in presence of prothrombin complex

T1 sequence (P13726 whole entry): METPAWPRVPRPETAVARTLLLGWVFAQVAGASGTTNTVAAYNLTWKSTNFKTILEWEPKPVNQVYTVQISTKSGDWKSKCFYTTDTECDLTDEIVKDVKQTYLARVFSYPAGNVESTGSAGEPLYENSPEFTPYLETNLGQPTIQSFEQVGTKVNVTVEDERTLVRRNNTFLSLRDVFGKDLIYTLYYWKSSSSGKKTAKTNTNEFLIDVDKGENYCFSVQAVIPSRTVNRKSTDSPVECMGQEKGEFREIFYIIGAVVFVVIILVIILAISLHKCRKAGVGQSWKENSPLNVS

| SMILES | IC50 [nM] |
| --- | --- |
| CC1(C)CC[C@]2(C(=O)O)[C@H](O)C[C@]3(C)C(=CC[C@@H]4[C@@]5(C)CC[C@H](O)C(C)(C)[C@@H]5CC[C@]43C)[C@@H]2C1 [CHEBI:4747] | 0.054 |
| CC1(C)CC[C@]2(C(=O)O)CC[C@]3(C)C(=CC[C@@H]4[C@@]5(C)CC[C@H](O[C@@H]6O[C@H](CO)[C@@H](O)[C@H](O)[C@H]6O)C(C)(C)[C@@H]5CC[C@]43C)[C@@H]2C1 [Vitalboside A] | 0.095 |
| COc1cc(/C=C/C(=O)CC(=O)/C=C/c2ccc(O)c(OC)c2)ccc1O [CHEBI:3962] | 13 |
| C=C(C)[C@@H]1CC[C@]2(C(=O)O[C@@H]3O[C@H](CO)[C@@H](O)[C@H](O)[C@H]3O)CC[C@]3(C)C(CC[C@@H]4[C@@]5(C)CC[C@H](O[C@@H]6O[C@H](CO)[C@@H](O)[C@H](O)[C@H]6O)C(C)(C)[C@@H]5CC[C@]43C)[C@H]12 (some centres undefined) | 0.64 |
| CC1(C)CC[C@]2(C(=O)O[C@@H]3O[C@H](CO)[C@@H](O)[C@H](O)[C@H]3O)CC[C@]3(C)C(=CC[C@@H]4[C@@]5(C)CC[C@H](O)[C@@](C)(CO)[C@@H]5CC[C@]43C)[C@@H]2C1 [CHEBI:67947] | 0.28 |
| CC1(C)CC[C@]2(C(=O)O[C@@H]3O[C@H](CO)[C@@H](O)[C@H](O)[C@H]3O)[C@H](O)C[C@]3(C)C(=CC[C@@H]4[C@@]5(C)CC[C@H](O)[C@](C)(CO)[C@@H]5CC[C@]43C)[C@@H]2C1 | 0.801 |

The compounds below were run against T1, Tissue factor (assay: as §1).

| SMILES | IC50 [nM] |
| --- | --- |
| CC1(C)CC[C@]2(C(=O)O[C@@H]3O[C@H](CO)[C@@H](O)[C@H](O)[C@H]3O)[C@H](O)C[C@]3(C)C(=CC[C@@H]4[C@@]5(C)CC[C@H](O)C(C)(C)[C@@H]5CC[C@]43C)[C@@H]2C1 | 11 |
| CC1(C)CC[C@]2(C(=O)OCc3ccccc3)CC[C@]3(C)C(=CC[C@@H]4[C@@]5(C)CC[C@H](O)C(C)(C)[C@@H]5CC[C@]43C)[C@@H]2C1 [benzyl (4aS,6aS,6bR,8aR,10S,12aR,12bR,14bS)-10-hydroxy-2,2,6a,6b,9,9,12a-heptamethyl-1,3,4,5,6,7,8,8a,10,11,12,12b,13,14b-tetradecahydropicene-4a-carboxylate (Compound 4)] | 4.7 |
| CC1(C)CC[C@]2(C(=O)O)CC[C@]3(C)C(=CC[C@@H]4[C@@]5(C)CCC(=O)C(C)(C)[C@@H]5CC[C@]43C)[C@@H]2C1 [Oleanonic Acid] | 0.221 |
| CC1(C)CC[C@]2(C(=O)O[C@@H]3O[C@H](CO)[C@@H](O)[C@H](O)[C@H]3O)CC[C@]3(C)C(=CC[C@@H]4[C@@]5(C)CC[C@H](O)[C@](C)(CO)[C@@H]5CC[C@]43C)[C@@H]2C1 | 6.5 |
| CC1(C)CC[C@]2(C(=O)O[C@@H]3O[C@H](CO)[C@@H](O)[C@H](O)[C@H]3O)[C@H](O)C[C@]3(C)C(=CC[C@@H]4[C@@]5(C)CC[C@H](O[C@@H]6O[C@H](CO)[C@@H](O)[C@H](O)[C@H]6O)C(C)(C)[C@@H]5CC[C@]43C)[C@@H]2C1 | 9.6 |
| CC1(C)CC[C@]2(C(=O)O)CC[C@]3(C)C(=CC[C@@H]4[C@@]5(C)CC[C@H](O)[C@](C)(CO)[C@@H]5CC[C@]43C)[C@@H]2C1 | 1.3 |
| CC1(C)CC[C@]2(C(=O)O)CC[C@]3(C)C(=CC[C@@H]4[C@@]5(C)CC[C@H](O)C(C)(C)[C@@H]5CC[C@]43C)[C@@H]2C1 [Oleanolic acid (OA)(Compound 1)] | 5 |
| CC1(C)CC[C@]2(C(=O)O)CC[C@]3(C)C(=CC[C@@H]4[C@@]5(C)CC[C@H](O)[C@@](C)(CO)[C@@H]5CC[C@]43C)[C@@H]2C1 [4-Epi-Hederagenin] | 0.221 |
| C=C(C)[C@@H]1CC[C@]2(C(=O)O[C@@H]3O[C@H](CO)[C@@H](O)[C@H](O)[C@H]3O)CC[C@]3(C)C(CC[C@@H]4[C@@]5(C)CC[C@H](O)C(C)(C)[C@@H]5CC[C@]43C)[C@H]12 (some centres undefined) | 0.078 |
| C=C(C)[C@@H]1CC[C@]2(C(=O)O)CC[C@]3(C)C(CC[C@@H]4[C@@]5(C)CC[C@H](O)[C@@](C)(CO)[C@@H]5CC[C@]43C)[C@H]12 (some centres undefined) | 0.221 |
| C=C(C)[C@@H]1CC[C@]2(C(=O)O[C@@H]3O[C@H](CO)[C@@H](O)[C@H](O)[C@H]3O)CC[C@]3(C)C(CC[C@@H]4[C@@]5(C)CC[C@H](O)[C@@](C)(CO)[C@@H]5CC[C@]43C)[C@H]12 (some centres undefined) | 0.028 |
| CC1(C)CC[C@]2(C(=O)O[C@@H]3O[C@H](CO)[C@@H](O)[C@H](O)[C@H]3O)CC[C@]3(C)C(=CC[C@@H]4[C@@]5(C)CC[C@H](O[C@@H]6O[C@H](CO)[C@@H](O)[C@H](O)[C@H]6O)C(C)(C)[C@@H]5CC[C@]43C)[C@@H]2C1 | 16 |
| CC1(C)CC[C@]2(C(=O)O[C@@H]3O[C@H](CO)[C@@H](O)[C@H](O)[C@H]3O)CC[C@]3(C)C(=CC[C@@H]4[C@@]5(C)CC[C@H](O)C(C)(C)[C@@H]5CC[C@]43C)[C@@H]2C1 [CHEBI:67985] | 0.035 |
